Test results from PubChem BioAssay (NCI).
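How tested: cells in 96-well plates exposed to compound for 48 hours at five concentrations. TGI: concentration producing complete growth inhibition.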

Legend:
Experiment in all cases: NCI tumour cell line growth inhibition, 48 h
786-0 renal = test system: 786-0 renal
A498 renal = test system: A498 renal
A549 NSCLC = test system: A549 NSCLC
ACHN renal = test system: ACHN renal
BT-549 breast = test system: BT-549 breast
CAKI-1 renal = test system: CAKI-1 renal
CCRF-CEM leukemia = test system: CCRF-CEM leukemia
COLO 205 colon = test system: COLO 205 colon
DU-145 prostate = test system: DU-145 prostate
EKVX NSCLC = test system: EKVX NSCLC
HCC-2998 colon = test system: HCC-2998 colon
HCT-116 colon = test system: HCT-116 colon
HCT-15 colon = test system: HCT-15 colon
HL-60(TB) leukemia = test system: HL-60(TB) leukemia
HOP-62 NSCLC = test system: HOP-62 NSCLC
HOP-92 NSCLC = test system: HOP-92 NSCLC
HS 578T breast = test system: HS 578T breast
HT29 colon = test system: HT29 colon
IGROV1 ovarian = test system: IGROV1 ovarian
K-562 leukemia = test system: K-562 leukemia
KM12 colon = test system: KM12 colon
LOX IMVI melanoma = test system: LOX IMVI melanoma
M14 melanoma = test system: M14 melanoma
MCF7 breast = test system: MCF7 breast
MDA-MB-231 breast = test system: MDA-MB-231 breast
MDA-MB-435 = test system: MDA-MB-435
MDA-N = test system: MDA-N
NCI-H226 lung = test system: NCI-H226 lung
NCI-H23 lung = test system: NCI-H23 lung
NCI-H460 lung = test system: NCI-H460 lung
NCI-H522 lung = test system: NCI-H522 lung
NCI/ADR-RES ovarian = test system: NCI/ADR-RES ovarian
OVCAR-3 ovarian = test system: OVCAR-3 ovarian
OVCAR-4 ovarian = test system: OVCAR-4 ovarian
OVCAR-5 ovarian = test system: OVCAR-5 ovarian
OVCAR-8 ovarian = test system: OVCAR-8 ovarian
PC-3 prostate = test system: PC-3 prostate
RPMI-8226 leukemia = test system: RPMI-8226 leukemia
SF-268 CNS = test system: SF-268 CNS
SF-295 CNS = test system: SF-295 CNS
SF-539 CNS = test system: SF-539 CNS
SK-MEL-2 melanoma = test system: SK-MEL-2 melanoma
SK-MEL-28 melanoma = test system: SK-MEL-28 melanoma
SK-MEL-5 melanoma = test system: SK-MEL-5 melanoma
SK-OV-3 ovarian = test system: SK-OV-3 ovarian
SNB-19 CNS = test system: SNB-19 CNS
SNB-75 CNS = test system: SNB-75 CNS
SR leukemia = test system: SR leukemia
SW-620 colon = test system: SW-620 colon
T-47D breast = test system: T-47D breast
TK-10 renal = test system: TK-10 renal
U251 CNS = test system: U251 CNS
UACC-257 melanoma = test system: UACC-257 melanoma
UACC-62 melanoma = test system: UACC-62 melanoma
UO-31 renal = test system: UO-31 renal
MOLT-4 leukemia = test system: MOLT-4 leukemia
RXF 393 renal = test system: RXF 393 renal
SN12C renal = test system: SN12C renal

SMILES: C=C1C/C(=C/C)C(=O)O[C@@H]2CCN3CC=C(COC(=O)[C@]1(C)O)[C@H]23
- TGI (786-0 renal): > 100 µM
- TGI (A498 renal): > 100 µM
- TGI (A549 NSCLC): > 100 µM
- TGI (ACHN renal): > 100 µM
- TGI (BT-549 breast): > 100 µM
- TGI (CAKI-1 renal): > 100 µM
- TGI (CCRF-CEM leukemia): > 100 µM
- TGI (COLO 205 colon): > 100 µM
- TGI (DU-145 prostate): > 100 µM
- TGI (EKVX NSCLC): > 100 µM
- TGI (HCC-2998 colon): > 100 µM
- TGI (HCT-116 colon): > 100 µM
- TGI (HCT-15 colon): > 100 µM
- TGI (HL-60(TB) leukemia): > 100 µM
- TGI (HOP-62 NSCLC): > 100 µM
- TGI (HOP-92 NSCLC): > 100 µM
- TGI (HS 578T breast): > 100 µM
- TGI (HT29 colon): > 100 µM
- TGI (IGROV1 ovarian): > 100 µM
- TGI (K-562 leukemia): > 100 µM
- TGI (KM12 colon): > 100 µM
- TGI (LOX IMVI melanoma): > 100 µM
- TGI (M14 melanoma): > 100 µM
- TGI (MCF7 breast): > 100 µM
- TGI (MDA-MB-231 breast): > 100 µM
- TGI (MDA-MB-435): > 100 µM
- TGI (MDA-N): > 100 µM
- TGI (NCI-H226 lung): > 100 µM
- TGI (NCI-H23 lung): > 100 µM
- TGI (NCI-H460 lung): > 100 µM
- TGI (NCI-H522 lung): > 100 µM
- TGI (NCI/ADR-RES ovarian): > 100 µM
- TGI (OVCAR-3 ovarian): > 100 µM
- TGI (OVCAR-4 ovarian): > 100 µM
- TGI (OVCAR-5 ovarian): > 100 µM
- TGI (OVCAR-8 ovarian): > 100 µM
- TGI (PC-3 prostate): > 100 µM
- TGI (RPMI-8226 leukemia): > 100 µM
- TGI (SF-268 CNS): > 100 µM
- TGI (SF-295 CNS): > 100 µM
- TGI (SF-539 CNS): > 100 µM
- TGI (SK-MEL-2 melanoma): > 100 µM
- TGI (SK-MEL-28 melanoma): > 100 µM
- TGI (SK-MEL-5 melanoma): > 100 µM
- TGI (SK-OV-3 ovarian): > 100 µM
- TGI (SNB-19 CNS): > 100 µM
- TGI (SNB-75 CNS): > 100 µM
- TGI (SR leukemia): > 100 µM
- TGI (SW-620 colon): > 100 µM
- TGI (T-47D breast): > 100 µM
- TGI (TK-10 renal): > 100 µM
- TGI (U251 CNS): > 100 µM
- TGI (UACC-257 melanoma): > 100 µM
- TGI (UACC-62 melanoma): > 100 µM
- TGI (UO-31 renal): > 100 µM

SMILES: COc1cc(CCCl)c(CC2=NCCc3cc(OC)c(OC)cc32)cc1OC
- TGI (A549 NSCLC): > 100 µM
- TGI (ACHN renal): > 100 µM
- TGI (BT-549 breast): > 100 µM
- TGI (CAKI-1 renal): > 100 µM
- TGI (CCRF-CEM leukemia): > 100 µM
- TGI (COLO 205 colon): > 100 µM
- TGI (DU-145 prostate): > 100 µM
- TGI (EKVX NSCLC): > 100 µM
- TGI (HCC-2998 colon): > 100 µM
- TGI (HCT-116 colon): > 100 µM
- TGI (HL-60(TB) leukemia): > 100 µM
- TGI (HOP-62 NSCLC): > 100 µM
- TGI (HOP-92 NSCLC): > 100 µM
- TGI (HS 578T breast): 80.7 µM
- TGI (HT29 colon): > 100 µM
- TGI (IGROV1 ovarian): > 100 µM
- TGI (K-562 leukemia): > 100 µM
- TGI (KM12 colon): > 100 µM
- TGI (LOX IMVI melanoma): > 100 µM
- TGI (M14 melanoma): > 100 µM
- TGI (MCF7 breast): > 100 µM
- TGI (MDA-MB-231 breast): > 100 µM
- TGI (MDA-MB-435): > 100 µM
- TGI (MDA-N): > 100 µM
- TGI (MOLT-4 leukemia): > 100 µM
- TGI (NCI-H226 lung): > 100 µM
- TGI (NCI-H23 lung): > 100 µM
- TGI (NCI-H460 lung): > 100 µM
- TGI (NCI/ADR-RES ovarian): > 100 µM
- TGI (OVCAR-3 ovarian): > 100 µM
- TGI (OVCAR-4 ovarian): > 100 µM
- TGI (OVCAR-5 ovarian): > 100 µM
- TGI (OVCAR-8 ovarian): > 100 µM
- TGI (PC-3 prostate): > 100 µM
- TGI (RPMI-8226 leukemia): > 100 µM
- TGI (RXF 393 renal): > 100 µM
- TGI (SF-268 CNS): > 100 µM
- TGI (SF-295 CNS): > 100 µM
- TGI (SF-539 CNS): 57.7 µM
- TGI (SK-MEL-2 melanoma): > 100 µM
- TGI (SK-MEL-28 melanoma): > 100 µM
- TGI (SK-MEL-5 melanoma): > 100 µM
- TGI (SK-OV-3 ovarian): > 100 µM
- TGI (SN12C renal): > 100 µM
- TGI (SNB-19 CNS): > 100 µM
- TGI (SNB-75 CNS): > 100 µM
- TGI (SR leukemia): > 100 µM
- TGI (SW-620 colon): > 100 µM
- TGI (T-47D breast): > 100 µM
- TGI (TK-10 renal): > 100 µM
- TGI (U251 CNS): > 100 µM
- TGI (UACC-257 melanoma): > 100 µM
- TGI (UACC-62 melanoma): > 100 µM
- TGI (UO-31 renal): > 100 µM

SMILES: CC(O)(CCCCCl)c1nc2ccccc2s1 (stereo not drawn)
- TGI (786-0 renal): > 100 µM
- TGI (A498 renal): > 100 µM
- TGI (A549 NSCLC): > 100 µM
- TGI (ACHN renal): > 100 µM
- TGI (BT-549 breast): > 100 µM
- TGI (CAKI-1 renal): > 100 µM
- TGI (CCRF-CEM leukemia): > 100 µM
- TGI (COLO 205 colon): > 100 µM
- TGI (DU-145 prostate): > 100 µM
- TGI (EKVX NSCLC): > 100 µM
- TGI (HCT-116 colon): > 100 µM
- TGI (HCT-15 colon): > 100 µM
- TGI (HL-60(TB) leukemia): > 100 µM
- TGI (HOP-62 NSCLC): > 100 µM
- TGI (HS 578T breast): > 100 µM
- TGI (HT29 colon): > 100 µM
- TGI (IGROV1 ovarian): > 100 µM
- TGI (K-562 leukemia): > 100 µM
- TGI (KM12 colon): > 100 µM
- TGI (LOX IMVI melanoma): > 100 µM
- TGI (M14 melanoma): > 100 µM
- TGI (MCF7 breast): > 100 µM
- TGI (MDA-MB-231 breast): > 100 µM
- TGI (MDA-MB-435): > 100 µM
- TGI (MDA-N): > 100 µM
- TGI (MOLT-4 leukemia): > 100 µM
- TGI (NCI-H226 lung): > 100 µM
- TGI (NCI-H23 lung): > 100 µM
- TGI (NCI-H522 lung): > 100 µM
- TGI (NCI/ADR-RES ovarian): > 100 µM
- TGI (OVCAR-3 ovarian): > 100 µM
- TGI (OVCAR-4 ovarian): > 100 µM
- TGI (OVCAR-5 ovarian): > 100 µM
- TGI (OVCAR-8 ovarian): > 100 µM
- TGI (PC-3 prostate): > 100 µM
- TGI (RPMI-8226 leukemia): > 100 µM
- TGI (SF-268 CNS): > 100 µM
- TGI (SF-295 CNS): > 100 µM
- TGI (SF-539 CNS): > 100 µM
- TGI (SK-MEL-2 melanoma): > 100 µM
- TGI (SK-MEL-28 melanoma): > 100 µM
- TGI (SK-MEL-5 melanoma): > 100 µM
- TGI (SK-OV-3 ovarian): > 100 µM
- TGI (SN12C renal): > 100 µM
- TGI (SNB-19 CNS): > 100 µM
- TGI (SNB-75 CNS): > 100 µM
- TGI (SR leukemia): > 100 µM
- TGI (SW-620 colon): > 100 µM
- TGI (T-47D breast): > 100 µM
- TGI (TK-10 renal): > 100 µM
- TGI (U251 CNS): > 100 µM
- TGI (UACC-257 melanoma): > 100 µM
- TGI (UACC-62 melanoma): > 100 µM
- TGI (UO-31 renal): > 100 µM
